Test systems include SK-MEL-5 melanoma; A498 renal; HL-60(TB) leukemia; KM12 colon; IGROV1 ovarian; SNB-75 CNS; M14 melanoma; OVCAR-4 ovarian; MALME-3M melanoma; COLO 205 colon.
Test in all cases: growth of human tumour cells (NCI), 48 h

Each structure is given as a SMILES string.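 Cultured in 96-well plates, cells were exposed to test compound for 48 hours across five concentrations. The concentration for 50% growth inhibition is given as GI50. TGI: total growth inhibition.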 Some results are limits rather than exact numbers.

Turning to `N#Cc1ccccc1NC(=O)/C(=N\NC(=O)c1ccncc1)C(c1cnc2ccc([N+](=O)[O-])cc2n1)[N+](=O)[O-]` (stereo not given), the TGI in the test on SK-MEL-5 melanoma, in the test with A498 renal, in the test with HL-60(TB) leukemia, with KM12 colon, in the test with IGROV1 ovarian and with SNB-75 CNS was greater than 100 µM throughout. Further, the TGI in the test on M14 melanoma, in the test with OVCAR-4 ovarian and in the test on MALME-3M melanoma was greater than 100 µM in each case.

Regarding `c1nc2cscc2c2cscc12`, the TGI with A498 renal, with HL-60(TB) leukemia, in the test with KM12 colon, in the test on IGROV1 ovarian, in the test with M14 melanoma and in the test with OVCAR-4 ovarian was greater than 100 µM throughout. Moreover, the TGI in the test on MALME-3M melanoma was greater than 100 µM.

`COC(=O)NC/C=C\c1nc(CC/C=C\C(=O)OC2CC3CC(=O)O[C@H](/C=C/CC(C)C)C[C@H]4CCC(C)C(C[C@H](OC)CC(C2)O3)O4)co1` (stereo not given in full): the GI50 was less than 0.01 µM with SK-MEL-5 melanoma; 13.6 µM in the test on A498 renal; 4.25 µM with KM12 colon; 2.51 µM in the test on IGROV1 ovarian; 32.5 µM in the test on SNB-75 CNS; 1.1 µM with COLO 205 colon. For the same molecule, the GI50 with M14 melanoma was 4.27 µM; with OVCAR-4 ovarian, 23.4 µM; in the test with MALME-3M melanoma, 17.1 µM. The TGI was 19.3 µM in the test with SK-MEL-5 melanoma; 57.1 µM in the test on A498 renal; greater than 100 µM in the test with KM12 colon; greater than 100 µM with IGROV1 ovarian; greater than 100 µM in the test with SNB-75 CNS; greater than 100 µM in the test with COLO 205 colon. Besides, the values for the TGI with M14 melanoma, in the test with OVCAR-4 ovarian and with MALME-3M melanoma were greater than 100 µM, greater than 100 µM and 45.1 µM, respectively.

As to `C=C(Cl)COC(=O)Nc1cccc(Cl)c1`, the TGI is 39.6 µM in the test on SK-MEL-5 melanoma; 90.4 µM with A498 renal; 94.6 µM in the test on HL-60(TB) leukemia; greater than 100 µM in the test with KM12 colon; greater than 100 µM with IGROV1 ovarian; 83.7 µM in the test on SNB-75 CNS. In addition, the TGI with COLO 205 colon, with M14 melanoma and in the test with OVCAR-4 ovarian was greater than 100 µM throughout.

Regarding `COc1ccccc1C1=C2C(=O)N(C)C(c3ccccc3OC)=C2C(=O)N1C`, the TGI with SK-MEL-5 melanoma, in the test on A498 renal, in the test with HL-60(TB) leukemia, in the test on KM12 colon, in the test with IGROV1 ovarian and with COLO 205 colon was greater than 100 µM throughout. Besides, the TGI in the test with M14 melanoma, with OVCAR-4 ovarian and with MALME-3M melanoma was greater than 100 µM in each case.

Consider `O=C(O)c1c2c(c(C(=O)O)c3ccccc13)-c1ccccc1-2`, for which the TGI in the test with A498 renal, in the test on HL-60(TB) leukemia, in the test on KM12 colon, with SNB-75 CNS, in the test on COLO 205 colon and with M14 melanoma was greater than 100 µM each time. In addition, the TGI in the test on MALME-3M melanoma is greater than 100 µM.

With `CCCCCCCCCNCCCCCCCCC`, the GI50 was 1.77 µM with SK-MEL-5 melanoma; 9.79 µM in the test on A498 renal; 1.83 µM in the test on KM12 colon; 1.89 µM with IGROV1 ovarian; 1.57 µM with SNB-75 CNS; 1.77 µM with COLO 205 colon. For the same molecule, the GI50 in the test on M14 melanoma was 1.76 µM; in the test with OVCAR-4 ovarian, 1.75 µM; with MALME-3M melanoma it was 1.91 µM. In addition, the TGI with SK-MEL-5 melanoma amounted to 3.2 µM; in the test with A498 renal, 24.5 µM; with KM12 colon it was 3.29 µM; with IGROV1 ovarian, 3.8 µM; in the test on SNB-75 CNS, 3.38 µM; in the test with COLO 205 colon it was 3.22 µM. Further, the TGI is 3.19 µM in the test on M14 melanoma, 3.78 µM in the test on OVCAR-4 ovarian and 3.85 µM with MALME-3M melanoma.

Take `Nc1ccc(C(=O)c2ccc(N)c(Br)c2)cc1Br`: the GI50 was 0.372 µM in the test on SK-MEL-5 melanoma; 0.277 µM in the test on A498 renal; 0.326 µM in the test on HL-60(TB) leukemia; 0.409 µM in the test with KM12 colon; 0.474 µM in the test on IGROV1 ovarian; 0.291 µM with SNB-75 CNS. Further, the GI50 in the test with COLO 205 colon was 0.393 µM; in the test on M14 melanoma, 0.32 µM; in the test on OVCAR-4 ovarian it was 6.24 µM. The TGI in the test on SK-MEL-5 melanoma was 17.9 µM; with A498 renal, 3.95 µM; in the test on HL-60(TB) leukemia, 2.8 µM; with KM12 colon, 12.8 µM; with IGROV1 ovarian, 18.4 µM; with SNB-75 CNS, 13.4 µM. The TGI was 2.2 µM with COLO 205 colon, 72.5 µM with M14 melanoma and greater than 100 µM in the test with OVCAR-4 ovarian.

Take `Cc1cccc(C)c1NC(=O)CCCC(=O)CC(=O)/C=C/c1ccccc1`: the TGI with SK-MEL-5 melanoma, with A498 renal, with KM12 colon, in the test with IGROV1 ovarian, in the test with SNB-75 CNS and with COLO 205 colon was greater than 100 µM throughout. In addition, the TGI with M14 melanoma, with OVCAR-4 ovarian and in the test on MALME-3M melanoma was greater than 100 µM throughout.

Regarding `C1CNCCNCCNCCN1`, the TGI in the test with SK-MEL-5 melanoma, in the test with A498 renal, in the test with HL-60(TB) leukemia, with KM12 colon, in the test on IGROV1 ovarian and in the test on SNB-75 CNS was greater than 100 µM in each case. Also, the TGI in the test on COLO 205 colon, in the test with M14 melanoma and with MALME-3M melanoma was greater than 100 µM in each case.

Consider `O=C1C(=Cc2ccco2)C(=O)C2CCCCC12` (stereo not given), for which the TGI in the test with SK-MEL-5 melanoma, with A498 renal, in the test with KM12 colon, in the test on IGROV1 ovarian, with SNB-75 CNS and in the test with COLO 205 colon was greater than 100 µM in each case. For the same molecule, the TGI in the test with M14 melanoma, in the test on OVCAR-4 ovarian and in the test with MALME-3M melanoma was greater than 100 µM in each case.

In the case of `CC(=O)Nc1nc(SCc2ccccc2)c2ncn(C(C)=O)c2n1`, the GI50 with SK-MEL-5 melanoma was 45.3 µM; with A498 renal, 30.9 µM; with HL-60(TB) leukemia, 63 µM; in the test on KM12 colon it was greater than 100 µM; with IGROV1 ovarian, 79 µM; in the test with SNB-75 CNS it was 44.7 µM. Besides, the GI50 with COLO 205 colon is greater than 100 µM; with M14 melanoma, 88.6 µM; with MALME-3M melanoma, greater than 100 µM. In addition, the TGI in the test with SK-MEL-5 melanoma, with A498 renal, with HL-60(TB) leukemia, with KM12 colon, with IGROV1 ovarian and in the test on SNB-75 CNS was greater than 100 µM each time. Besides, the TGI in the test with COLO 205 colon, in the test on M14 melanoma and in the test with MALME-3M melanoma was greater than 100 µM in each case.

(Values after PubChem BioAssay (NCI).)
